Laboratory results reported in patent US7118895B2, “Process for producing aglycon by using diglycosidase and flavor-improved food containing the aglycon and converting agent to be used in the process” (Amano Enzyme Inc., priority 2000, dated 2006).

Test system: Crude diglycosidase
Assay: Examination of temperature in the conversion into isoflavone aglycons by diglycosidase using soybean materials
Type: biochemical, Penicillium multicolor IAM7153
Design: Decomposition efficiency of glycitin family in roasted soy flour / Decomposition efficiency of daidzin family in roasted soy flour / Decomposition efficiency of genistin family in soymilk / Decomposition efficiency of daidzin family in soymilk / Decomposition efficiency of glycitin family in defatted soybean / Decomposition efficiency of daidzin family in defatted soybean: concentration or dose not given beside the values
Summary of the method: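 Temperature series (30-80° C.) of crude diglycosidase, diluted to 1.88 AU/mL in 20 mM acetate pH 4.0, acting on roasted soy flour, soymilk, defatted soybean or soy protein concentrate. Samples quenched with ethanol after 0-6 h, centrifuged, filtered and analyzed by HPLC for glycosides versus aglycons.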

[1] = 30 °C, heat treatment of enzyme: no, 0 h
[2] = 30 °C, heat treatment of enzyme: no, 1 h
[3] = 30 °C, heat treatment of enzyme: no, 3 h
[4] = 30 °C, heat treatment of enzyme: no, 6 h
[5] = 30 °C, heat treatment of enzyme: yes, 6 h
[6] = 45 °C, heat treatment of enzyme: no, 0 h
[7] = 45 °C, heat treatment of enzyme: no, 1 h
[8] = 45 °C, heat treatment of enzyme: no, 3 h
[9] = 45 °C, heat treatment of enzyme: no, 6 h
[10] = 45 °C, heat treatment of enzyme: yes, 6 h
[11] = 55 °C, heat treatment of enzyme: no, 0 h
[12] = 55 °C, heat treatment of enzyme: no, 1 h
[13] = 55 °C, heat treatment of enzyme: no, 3 h
[14] = 55 °C, heat treatment of enzyme: no, 6 h
[15] = 55 °C, heat treatment of enzyme: yes, 6 h
[16] = 65 °C, heat treatment of enzyme: no, 0 h
[17] = 65 °C, heat treatment of enzyme: no, 1 h
[18] = 65 °C, heat treatment of enzyme: no, 3 h
[19] = 65 °C, heat treatment of enzyme: no, 6 h
[20] = 65 °C, heat treatment of enzyme: yes, 6 h
[21] = 80 °C, heat treatment of enzyme: no, 0 h
[22] = 80 °C, heat treatment of enzyme: no, 1 h
[23] = 80 °C, heat treatment of enzyme: no, 3 h
[24] = 80 °C, heat treatment of enzyme: no, 6 h
[25] = 80 °C, heat treatment of enzyme: yes, 6 h

Decomposition efficiency of glycitin family in defatted soybean (30° C., heat treatment of enzyme no, reaction time 0 h): 61.3%
Decomposition efficiency of glycitin family in defatted soybean (30° C., heat treatment of enzyme no, reaction time 1 h): 48.3%
Decomposition efficiency of glycitin family in defatted soybean (30° C., heat treatment of enzyme no, reaction time 3 h): 44.6%
Decomposition efficiency of glycitin family in defatted soybean (30° C., heat treatment of enzyme no, reaction time 6 h): 45.6%
Decomposition efficiency of glycitin family in defatted soybean (30° C., heat treatment of enzyme yes, reaction time 6 h): 45.1%
Decomposition efficiency of glycitin family in concentrated soybean protein [1]: 0.4%
Decomposition efficiency of glycitin family in roasted soy flour [1]: not detected
Decomposition efficiency of glycitin family in soymilk [1]: 48.0%
Decomposition efficiency of glycitin family in concentrated soybean protein [2]: 0.5%
Decomposition efficiency of glycitin family in roasted soy flour [2]: not detected
Decomposition efficiency of glycitin family in soymilk [2]: 51.0%
Decomposition efficiency of glycitin family in concentrated soybean protein [3]: 0.5%
Decomposition efficiency of glycitin family in roasted soy flour [3]: not detected
Decomposition efficiency of glycitin family in soymilk [3]: 39.6%
Decomposition efficiency of glycitin family in concentrated soybean protein [4]: 0.5%
Decomposition efficiency of glycitin family in roasted soy flour [4]: not detected
Decomposition efficiency of glycitin family in soymilk [4]: 28.4%
Decomposition efficiency of glycitin family in concentrated soybean protein [5]: 0.4%
Decomposition efficiency of glycitin family in roasted soy flour [5]: not detected
Decomposition efficiency of glycitin family in soymilk [5]: 47.7%
Decomposition efficiency of glycitin family in defatted soybean (45° C., heat treatment of enzyme no, reaction time 0 h): 65.2%
Decomposition efficiency of glycitin family in defatted soybean (45° C., heat treatment of enzyme no, reaction time 1 h): 44.3%
Decomposition efficiency of glycitin family in defatted soybean (45° C., heat treatment of enzyme no, reaction time 3 h): 44.8%
Decomposition efficiency of glycitin family in defatted soybean (45° C., heat treatment of enzyme no, reaction time 6 h): 41.0%
Decomposition efficiency of glycitin family in defatted soybean (45° C., heat treatment of enzyme yes, reaction time 6 h): 44.2%
Decomposition efficiency of glycitin family in concentrated soybean protein [6]: 0.4%
Decomposition efficiency of glycitin family in roasted soy flour [6]: not detected
Decomposition efficiency of glycitin family in soymilk [6]: 49.1%
Decomposition efficiency of glycitin family in concentrated soybean protein [7]: 0.6%
Decomposition efficiency of glycitin family in roasted soy flour [7]: not detected
Decomposition efficiency of glycitin family in soymilk [7]: 46.2%
Decomposition efficiency of glycitin family in concentrated soybean protein [8]: 0.6%
Decomposition efficiency of glycitin family in roasted soy flour [8]: not detected
Decomposition efficiency of glycitin family in soymilk [8]: 29.9%
Decomposition efficiency of glycitin family in concentrated soybean protein [9]: 0.6%
Decomposition efficiency of glycitin family in roasted soy flour [9]: not detected
Decomposition efficiency of glycitin family in soymilk [9]: 15.3%
Decomposition efficiency of glycitin family in concentrated soybean protein [10]: 0.5%
Decomposition efficiency of glycitin family in roasted soy flour [10]: not detected
Decomposition efficiency of glycitin family in soymilk [10]: 47.2%
Decomposition efficiency of glycitin family in defatted soybean (55° C., heat treatment of enzyme no, reaction time 0 h): 61.3%
Decomposition efficiency of glycitin family in defatted soybean (55° C., heat treatment of enzyme no, reaction time 1 h): 44.8%
Decomposition efficiency of glycitin family in defatted soybean (55° C., heat treatment of enzyme no, reaction time 3 h): 42.6%
Decomposition efficiency of glycitin family in defatted soybean (55° C., heat treatment of enzyme no, reaction time 6 h): 42.7%
Decomposition efficiency of glycitin family in defatted soybean (55° C., heat treatment of enzyme yes, reaction time 6 h): 45.5%
Decomposition efficiency of glycitin family in concentrated soybean protein [11]: 0.4%
Decomposition efficiency of glycitin family in roasted soy flour [11]: not detected
Decomposition efficiency of glycitin family in soymilk [11]: 44.6%
Decomposition efficiency of glycitin family in concentrated soybean protein [12]: 0.5%
Decomposition efficiency of glycitin family in roasted soy flour [12]: not detected
Decomposition efficiency of glycitin family in soymilk [12]: 39.1%
Decomposition efficiency of glycitin family in concentrated soybean protein [13]: 0.5%
Decomposition efficiency of glycitin family in roasted soy flour [13]: not detected
Decomposition efficiency of glycitin family in soymilk [13]: 27.7%
Decomposition efficiency of glycitin family in concentrated soybean protein [14]: 0.5%
Decomposition efficiency of glycitin family in roasted soy flour [14]: not detected
Decomposition efficiency of glycitin family in soymilk [14]: 16.5%
Decomposition efficiency of glycitin family in concentrated soybean protein [15]: 0.4%
Decomposition efficiency of glycitin family in roasted soy flour [15]: not detected
Decomposition efficiency of glycitin family in soymilk [15]: 39.9%
Decomposition efficiency of glycitin family in defatted soybean (65° C., heat treatment of enzyme no, reaction time 0 h): 65.2%
Decomposition efficiency of glycitin family in defatted soybean (65° C., heat treatment of enzyme no, reaction time 1 h): 45.3%
Decomposition efficiency of glycitin family in defatted soybean (65° C., heat treatment of enzyme no, reaction time 3 h): 42.1%
Decomposition efficiency of glycitin family in defatted soybean (65° C., heat treatment of enzyme no, reaction time 6 h): 40.0%
Decomposition efficiency of glycitin family in defatted soybean (65° C., heat treatment of enzyme yes, reaction time 6 h): 48.8%
Decomposition efficiency of glycitin family in concentrated soybean protein [16]: 0.4%
Decomposition efficiency of glycitin family in roasted soy flour [16]: not detected
Decomposition efficiency of glycitin family in soymilk [16]: 48.0%
Decomposition efficiency of glycitin family in concentrated soybean protein [17]: 0.5%
Decomposition efficiency of glycitin family in roasted soy flour [17]: not detected
Decomposition efficiency of glycitin family in soymilk [17]: 42.4%
Decomposition efficiency of glycitin family in concentrated soybean protein [18]: 0.5%
Decomposition efficiency of glycitin family in roasted soy flour [18]: not detected
Decomposition efficiency of glycitin family in soymilk [18]: 34.3%
Decomposition efficiency of glycitin family in concentrated soybean protein [19]: 0.4%
Decomposition efficiency of glycitin family in roasted soy flour [19]: not detected
Decomposition efficiency of glycitin family in soymilk [19]: 25.5%
Decomposition efficiency of glycitin family in concentrated soybean protein [20]: 0.4%
Decomposition efficiency of glycitin family in roasted soy flour [20]: not detected
Decomposition efficiency of glycitin family in soymilk [20]: 36.0%
Decomposition efficiency of glycitin family in defatted soybean (80° C., heat treatment of enzyme no, reaction time 0 h): 65.2%
Decomposition efficiency of glycitin family in defatted soybean (80° C., heat treatment of enzyme no, reaction time 1 h): 46.1%
Decomposition efficiency of glycitin family in defatted soybean (80° C., heat treatment of enzyme no, reaction time 3 h): 45.0%
Decomposition efficiency of glycitin family in defatted soybean (80° C., heat treatment of enzyme no, reaction time 6 h): 40.3%
Decomposition efficiency of glycitin family in defatted soybean (80° C., heat treatment of enzyme yes, reaction time 6 h): 48.1%
Decomposition efficiency of glycitin family in concentrated soybean protein [21]: 0.4%
Decomposition efficiency of glycitin family in roasted soy flour [21]: not detected
Decomposition efficiency of glycitin family in soymilk [21]: 49.1%
Decomposition efficiency of glycitin family in concentrated soybean protein [22]: 0.4%
Decomposition efficiency of glycitin family in roasted soy flour [22]: not detected
Decomposition efficiency of glycitin family in soymilk [22]: 43.6%
Decomposition efficiency of glycitin family in concentrated soybean protein [23]: 0.4%
Decomposition efficiency of glycitin family in roasted soy flour [23]: not detected
Decomposition efficiency of glycitin family in soymilk [23]: 32.6%
Decomposition efficiency of glycitin family in concentrated soybean protein [24]: 0.3%
Decomposition efficiency of glycitin family in roasted soy flour [24]: not detected
Decomposition efficiency of glycitin family in soymilk [24]: 21.3%
Decomposition efficiency of glycitin family in concentrated soybean protein [25]: 0.3%
Decomposition efficiency of glycitin family in roasted soy flour [25]: not detected
Decomposition efficiency of glycitin family in soymilk [25]: 19.3%
Structure (SMILES): COc1cc2c(=O)c(-c3ccc(O)cc3)coc2cc1O[C@@H]1O[C@H](COC(=O)CC(=O)O)[C@@H](O)[C@H](O)[C@H]1O [malonylglycitin, 6″-O-malonylglycitin]
